For data set [1], the target named is T1, dopamine-β-hydroxylase (Bos taurus, UniProt P15101).
T1 construct: from tissue; host or cells: bovine adrenal (gland) preparations
T1 sequence (P15101 1-610): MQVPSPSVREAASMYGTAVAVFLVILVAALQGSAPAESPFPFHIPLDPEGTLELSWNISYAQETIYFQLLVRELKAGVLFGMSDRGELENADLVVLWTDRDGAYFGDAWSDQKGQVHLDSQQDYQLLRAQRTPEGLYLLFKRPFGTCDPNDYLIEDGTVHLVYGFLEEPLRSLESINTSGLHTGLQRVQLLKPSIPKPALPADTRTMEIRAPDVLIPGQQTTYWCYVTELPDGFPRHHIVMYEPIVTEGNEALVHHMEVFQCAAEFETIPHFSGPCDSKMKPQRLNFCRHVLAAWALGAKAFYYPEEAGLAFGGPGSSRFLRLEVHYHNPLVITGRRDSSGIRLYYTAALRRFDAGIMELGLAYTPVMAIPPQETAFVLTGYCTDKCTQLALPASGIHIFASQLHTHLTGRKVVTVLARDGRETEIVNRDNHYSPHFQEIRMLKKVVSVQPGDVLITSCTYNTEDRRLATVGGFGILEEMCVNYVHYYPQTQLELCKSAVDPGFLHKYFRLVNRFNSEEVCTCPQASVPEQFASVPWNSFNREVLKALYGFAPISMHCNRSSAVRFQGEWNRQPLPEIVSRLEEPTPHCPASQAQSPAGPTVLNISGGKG
Kind of data set: Dopamine-β-hydroxylase inhibiting activity (DBH) on bovine adrenal (gland) preparations. It is filed as biochemical. Conditions: read-out: Enzyme inhibiting activity, DBH; for inhibition at 100 µM: 10^-4 mole/liter; for inhibition at 10 µM: 10^-5 mole/liter. As for the experimental part: Dopamine-β-hydroxylase inhibiting activity (DBH inhibiting activity) of the compounds according to the invention was tested on bovine adrenal (gland) preparations by a modified version of Nagatsu's method [B.B. Acta, 139 319 (1967)].
(§1) Inhibiting effect of several compounds encompassed by the formula I in comparison with some known compounds is listed in the following Table I.

For data set [2], the target named is T2, tyrosine-hydroxylase (Rattus norvegicus, UniProt P04177).
T2 construct: on rat adrenal homogenate; from tissue; host or cells: rat adrenal homogenate
T2 sequence (P04177 whole entry): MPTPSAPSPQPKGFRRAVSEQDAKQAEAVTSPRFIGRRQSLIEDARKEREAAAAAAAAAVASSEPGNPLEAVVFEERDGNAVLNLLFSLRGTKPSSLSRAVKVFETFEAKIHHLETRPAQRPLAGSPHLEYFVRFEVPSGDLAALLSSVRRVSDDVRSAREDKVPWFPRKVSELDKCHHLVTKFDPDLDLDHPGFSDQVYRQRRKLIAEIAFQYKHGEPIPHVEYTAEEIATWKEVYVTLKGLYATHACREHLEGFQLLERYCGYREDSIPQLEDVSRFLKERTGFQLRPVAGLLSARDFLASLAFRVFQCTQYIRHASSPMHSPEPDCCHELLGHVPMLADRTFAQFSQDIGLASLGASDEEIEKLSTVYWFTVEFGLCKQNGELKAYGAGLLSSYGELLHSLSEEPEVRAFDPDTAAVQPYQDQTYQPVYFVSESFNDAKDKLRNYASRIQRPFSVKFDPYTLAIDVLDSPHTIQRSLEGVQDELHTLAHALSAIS
Kind of data set: In vitro tyrosine-hydroxylase inhibiting activity (TH) on rat adrenal homogenate. It is filed as biochemical. The conditions noted are these: read-out: Enzyme inhibiting activity, TH; for inhibition at 100 µM: 10^-4 mole/liter; for inhibition at 10 µM: 10^-5 mole/liter. As for the experimental part: In vitro tyrosine-hydroxylase inhibiting activity (TH inhibiting activity) of the new compounds according to the invention was tested by the method of Nagatsu [Anal. Biochem., 9, 122 (1964)] on rat adrenal homogenate. Radioactive tyrosine was purified by the method elaborated by Ikeda [J. Biol. Chem., 241, 4452 (1966)]. TH activity of the rat adrenal homogenate amounted to […] nmoles/mg protein/60 min.
as §1

The nature of data set [3]: Acute toxicity (LD50) on mice. The conditions noted are these: mouse, in vivo, po.
For data set [4], the system named is spontaneous hypertensive rats (Wistar-Okamoto rats). Kind of data set: Blood pressure lowering activity, systolic blood pressure of waking spontaneous hypertensive rats, oral. The format is in vivo, rat. The conditions noted are these: for change in vivo at 2.5 mg/kg / change in vivo at 50 mg/kg / change in vivo at 20 mg/kg: Rattus norvegicus, oral, read-out: Reduction in blood pressure; for significant blood pressure lowering activity: ≥-15%. As for the experimental part:
Blood pressure lowering activity of the new compounds according to the invention was tested on spontaneous hypertensive rats (Wistar-Okamoto rats) following the method described in Arzn. Forsch., 6, 222 (1956). Systolic blood pressure of waking animals was measured in arteria caudalis 4, 24, 48 and 72 hours after the oral administration of the test compounds.

Read-outs that look alike come from different tables or passages of the source. Bounds are passed on as bounds.

Regarding `CC(N)(Cc1ccc(O)cc1)C(=O)O` (racemic) [D,L-α-methyl-4-hydroxy-phenyl-alanine, reference compound], in data set [1], the inhibition at 100 µM turned out to be 0% and the inhibition at 10 µM was determined as 0%. In data set [2], the inhibition at 100 µM is 100% and the inhibition at 10 µM stood at 60%.
Take `CC12CCC(CC1=NNc1cccnn1)C2(C)C` (stereo not drawn) [Example 3, 1,7,7-Trimethy-2-bicyclo-[2,2,1]heptylidene-3-pyridazinylhydrazone]: the inhibition at 100 µM was determined as 80% in data set [1] and 100% in data set [2]. The inhibition at 10 µM in data set [1] was 0%; in data set [2] it was 75%.
As a reminder, the LD50 is the dose expected to kill half of the subjects tested. With `c1cc(N2CCOCC2)nnc1NN=C1CCCCC1` [Example 10, Cyclohexylidene-3-morpholino-6-pyridazinylhydrazone], the LD50 in data set [3] was < 200 mg/kg. Further, the change in vivo at 2.5 mg/kg in data set [4] (4 hours) is -41%; in data set [4] (24 hours), -26%. In addition, the “significant blood pressure lowering activity” value in data set [4] is reported as ≥ -15%.
With `c1cnnc(NN=C2CCCCC2)c1` [Example 12, Cyclohexylidene-3-pyridazinylhydrazone], in data set [1], the inhibition at 100 µM amounted to 84% and the inhibition at 10 µM is 10%. In addition, in data set [2], the inhibition at 100 µM stood at 100% and the inhibition at 10 µM stood at 85%.
In the case of `CC(=NNc1cccnn1)c1ccccc1` [Example 13, 1-Phenyl-1-ethylidene-3-pyridazinylhydrazone], in data set [1], the inhibition at 100 µM amounted to 90% and the inhibition at 10 µM was determined as 10%. Moreover, in data set [2], the inhibition at 100 µM amounted to 95% and the inhibition at 10 µM was 40%.
Taken in the same sequence, the figures for `CC1CCCCC1=NNc1ccc(Cl)nn1` (stereo not drawn) [Example 15, 2-Methyl-1-cyclohexylidene-3-chloro-6-pyridazinylhydrazone] were 88%, 32%, 100% and 50%.
As to `O=C(O)C1CCCCC1=NNc1ccc(Cl)nn1` (stereo not drawn) [Example 18, 2-Carboxy-1-cyclohexylidene-3-chloro-6-pyridazinylhydrazone], in data set [1], the inhibition at 100 µM amounted to 88% and the inhibition at 10 µM came to 32%. Besides, in data set [2], the inhibition at 100 µM is 100% and the inhibition at 10 µM was found to be 50%.
Regarding `CCOC(=O)CC(C)=NNc1cccnn1` [Example 22, 3-(Ethoxycarbonyl)-2-propylidene-(3-pyridazinyl)hydrazone], in data set [1], the inhibition at 100 µM was found to be 100% and the inhibition at 10 µM was 56%. Further, in data set [2], the inhibition at 100 µM came to 100% and the inhibition at 10 µM is 50%.
Take `COC(=O)CCC(C)=NNc1ccc(Cl)nn1` [Example 23]: in data set [1], the inhibition at 100 µM was 70% and the inhibition at 10 µM was found to be 50%. The compound also came in with an LD50 in data set [3] of 200 mg/kg. For the same compound, the change in vivo at 50 mg/kg in data set [4] (4 hours) is -21%. Further, the change in vivo at 50 mg/kg in data set [4] (24 hours) is -8%. Moreover, the “significant blood pressure lowering activity” value in data set [4] is given as ≥ -15%.
As for `COC(=O)CC(C)=NNc1ccc(Cl)nn1` [Example 24, 3-(Methoxycarbonyl)-2-propylidene-3-chloro-6-pyridazinylhydrazone], in data set [1], the inhibition at 100 µM amounted to 100% and the inhibition at 10 µM turned out to be 50%.
Regarding `CCOC(=O)C(C)C(C)=NNc1ccc(Cl)nn1` (stereo not drawn) [Example 25, 3-(Ethoxycarbonyl)-2-butylidene-3-chloro-6-pyridazinylhydrazone], in data set [3], the LD50 was determined as 200 mg/kg. The values for the change in vivo at 50 mg/kg in data set [4] (4 hours) and in data set [4] (24 hours) were -33% and -17%, respectively. Also, the “significant blood pressure lowering activity” value in data set [4] was ≥ -15%.
Taken in the same sequence, the figures for `CCOC(=O)CCCC(C)=NNc1ccc(Cl)nn1` [Example 26] were 200 mg/kg, -38%, -29% and ≥ -15%.
As for `CCOC(=O)CC(CC)=NNc1ccc(Cl)nn1` [Example 27, 1-(Ethoxycarbonyl)-2-butylidene-3-chloro-6-pyridazinylhydrazone], the “significant blood pressure lowering activity” value in data set [4] is reported as ≥ -15%.
Take `CCOC(=O)CC(=NNc1ccc(Cl)nn1)c1ccccc1` [Example 34, 1-(Ethoxycarbonyl)-2-phenyl-2-ethylidene-3-chloro-6-pyridazinylhydrazone]: in data set [1], the inhibition at 100 µM stood at 100% and the inhibition at 10 µM was found to be 40%.
Take `CCOC(=O)CC(=NNc1ccc(Cl)nn1)c1cccnc1` [Example 37, 1-(Ethoxycarbonyl)-2-(3-pyridyl)-2-ethylidene-3-chloro-6-pyridazinylhydrazone]: in data set [1], the inhibition at 100 µM was determined as 100% and the inhibition at 10 µM worked out at 41%.
`CC(CCC(=O)O)=NNc1ccc(Cl)nn1` [Example 38, 4-Carboxy-2-butylidene-3-chloro-6-pyridazinylhydrazone] showed an LD50 in data set [3] of 200 mg/kg. The results for the change in vivo at 50 mg/kg in data set [4] (4 hours) and in data set [4] (24 hours) were -34% and -27%, respectively. In addition, the “significant blood pressure lowering activity” value in data set [4] was ≥ -15%.
Take `CC(CCC(=O)OC(C)(C)C)=NNc1ccc(Cl)nn1` [Example 43, 4-(tert.-Butoxycarbonyl)-2-butylidene-3-chloro-6-pyridazinylhydrazone]: the LD50 in data set [3] came to 200 mg/kg. Besides, the change in vivo at 50 mg/kg in data set [4] (4 hours) is -32%; in data set [4] (24 hours) it was -18%. The “significant blood pressure lowering activity” value in data set [4] is recorded as ≥ -15%.
In turn, `CC(CCC(=O)O)=NNc1ccc(N2CCOCC2)nn1` [Example 48, 4-Carboxy-2-butylidene-3-morpholino-6-pyridazinylhydrazone] showed a 50% lethal dose (LD50) in data set [3] of 200 mg/kg. For the same compound, the change in vivo at 2.5 mg/kg in data set [4] (4 hours) is -33%; in data set [4] (24 hours), -8%. The “significant blood pressure lowering activity” value in data set [4] is given as ≥ -15%.
As to `CCOC(=O)CCCCC(C)=NNc1ccc(Cl)nn1` [Example 49, 6-(Ethoxycarbonyl)-2-hexylidene-3-chloro-6-pyridazinylhydrazone], in data set [1], the inhibition at 100 µM is 66%. The inhibition at 10 µM in data set [1] is 50%. Besides, in data set [3], the 50% lethal dose (LD50) was < 200 mg/kg. Moreover, the change in vivo at 20 mg/kg in data set [4] (4 hours) was -22%; in data set [4] (24 hours), -13%. Further, the “significant blood pressure lowering activity” value in data set [4] was ≥ -15%.
The compound `CC(CC(=O)OC(C)(C)C)=NNc1ccc(C)nn1` [Example 53, 3-(tert.-Butoxycarbonyl)-2-propylidene-(3-methyl-6-pyridazinyl) hydrazone] yielded a 50% lethal dose (LD50) in data set [3] of 200 mg/kg. Also, the results for the change in vivo at 50 mg/kg in data set [4] (4 hours) and in data set [4] (24 hours) were -32% and -27%, respectively. Also, in data set [4], the “significant blood pressure lowering activity” value was ≥ -15%.
In the case of `CC(CC(=O)OC(C)(C)C)=NNc1ccc(C(N)=O)nn1` [Example 56, 3-(tert.-Butoxycarbonyl)-2-propylidene-(3-carbamoyl-6-pyridazinyl) hydrazine], the LD50 in data set [3] was > 200 mg/kg. Further, the change in vivo at 20 mg/kg in data set [4] (4 hours) was -20%; in data set [4] (24 hours), 0%. The “significant blood pressure lowering activity” value in data set [4] is on record as ≥ -15%.
As to `CC(CCCC(=O)O)=NNc1ccc(N2CCOCC2)nn1` [Example 57, 5-Carboxy-2-pentylidene-3-morpholino-6-pyridazinylhydrazone], the LD50 in data set [3] amounted to 200 mg/kg. Besides, the change in vivo at 2.5 mg/kg is -28% in data set [4] (4 hours) and -16% in data set [4] (24 hours). In addition, the “significant blood pressure lowering activity” value in data set [4] is ≥ -15%.
As to `CCCCc1ccc(C(=O)O)nc1` [Fusaric acid, reference compound], in data set [1], the inhibition at 100 µM amounted to 100% and the inhibition at 10 µM came to 100%. In data set [2], the inhibition at 100 µM turned out to be 0% and the inhibition at 10 µM amounted to 0%.

The values above are taken from US4259328A, “Morpholino pyridazinylhydrazones” (Richter Gedeon Vegyeszeti Gyar Rt, priority 1977, dated 1981).
